“Also recorded” adds a separate entry of the source.
What was measured:
[1] = tested on: UCH-L1; assay: Membrane association of UCH-L1 in SH-SY5Y cells (membrane fractionation, 2D electrophoresis, Western blotting); format: cell-based; conditions: compared to cells treated with DMSO
Protocol: Membrane fractionation: Cells were harvested by scraping and washed with PBS. Cell pellet was suspended in lysis buffer (50 mM Tris-HCl, 1 mM EDTA) supplemented with protease inhibitor cocktail (Sigma) and homogenized by passing through 26G needles 10 times. Suspension was clarified by spinning at 600 g for 5 minutes. Clarified suspension was ultracentrifuged at 100,000 g for 2 hours and separated into membrane and cytosol. Membrane fraction was washed with washing buffer (50 mM Tris-HCl, 1 mM EDTA 1 M NaCl), and pelleted each time with bench-top centrifuge.
2D electrophoresis: For the isolation of total cellular protein, cultured SH-SY5Y cells maintained as described above were rinsed with ice-cold PBS. Cells were lysed in 1 ml dSDS buffer (50 mM Tris-HCl, pH 8.0 0.1% SDS) supplemented with protease inhibitor cocktail. Lysates were boiled for 3 min, and were treated with Dnase and Rnase as described. […]
Western Blotting: Following transfer of SDS gels onto NC membrane, all membranes were blocked with 5% non-fat milk in TBST (50 mM Tris-HCl pH 7.4, 150 mM NaCl, 0.1% Tween 20), and incubated with primary antibody overnight with 1% BSA in TBST, washed three times with TBST, and incubated with horseradish peroxidase-conjugated secondary antibody for 1 hour (Promega). Bound antibodies were detected using enhanced chemiluminascence (NEM).

[2] = tested on: UCH-L1; assay: Total amount and turnover of UCH-L1 in SH-SY5Y cells (pulse-chase, not shown); format: cell-based

COC(=O)[C@H](CCSC)NC(=O)c1ccc(NC[C@@H](N)CS)cc1-c1ccccc1 [FTI-277]
amount of cytosolic UCH-L1 [1]: without affecting
amount of membrane bound UCH-L1 (membrane-associated, farnesylated species) [1]: significant decrease; also recorded: decreased; also recorded: reducing
total amount of UCH-L1 [2]: reduced
rate of turnover of UCH-L1 ([2]; pulse-chase experiment not shown): increased

Reference: patent US20100184803A1, “Treatment of Lysosomal Storage Diseases” (priority 2007, published 2010)
